Consider 33 molecules from patent US7964613B2 (Asahi Kasei Pharma Corporation, priority 2007, dated 2011).

Where only a bound is given, the exact number is not on record here.

In assay [1] the target is T1, human ROCK1 (Homo sapiens, UniProt Q13464).
T1 construct: His tag (N); host or cells: insect cells (Sf9)
Briefly: Measurement of Rho kinase inhibitory activity (ELISA of MBS phosphorylation). The following applies: human ROCK1, MBS substrate, 100 μM ATP, 30° C. for 10 minutes. It counts as biochemical. The method, then:
In this test, human ROCK1 was used as Rho kinase, MBS (myosin binding subunit, subunit constituting myosin phosphatase) was used as the substrate of Rho kinase, and an anti-phosphorylated MBS antibody was used for detection of phosphorylation. The activity for inhibiting Rho kinase was determined by measuring phosphorylation of MBS by the Rho kinase by ELISA in the presence of an appropriately diluted test compound. As the Rho kinase used, a recombinant protein (N-terminal His-tagged recombinant human ROCK1 residues (1Met-[…])) was used, which was produced in insect cells (Sf9) using a sequence (1-727), of which activity was confirmed in the paper of Ishizaki et al. (Ishizaki, T. et al., FEBS Letters, 404, pp 118-124, 1997), based on the sequence of human ROCK1 (p 160 ROCK) described in the report of Ishizaki et al. (Ishizaki, T. et al., EMBO J., 15, pp 1885-1893, 1996). Further, as the MBS protein and anti-phosphorylated MBS antibody, those prepared according to the method described in the paper of Ito et al. (Ito, K et al., J. Physiol., 546, pp 823-836, 2003) were used.
A solution of MBS (Asahi Kasei Pharma, lot No, 040814n7-10) diluted with PBS to an appropriate concentration was added to an ELISA plate (Maxisorp, Nunc), and left, stand overnight at 4° C., and then the wells were washed twice with a washing solution (WB, washing buffer, 0.1% Tween 20/PBS). To the wells were added 1% bovine serum albumin (Sigma)/PBS, and left for 1 to 3 hours, and then the wells were washed 5 times with WB to prepare a substrate-immobilized plate. Onto this plate, a reaction mixture (5 mM MgSO4/0.1 M NaCl/20 mM HEPES (pH 7.5)/100 μM ATP/5 mM DTT), a test compound, and appropriately diluted human ROCK1 (Asahi Kasei Pharma, lot No, 030126.120-22) were added, and then reacted at 30° C. for 10 minutes. Then, 0.2 M EDTA (pH 7.5) was added to terminate the reaction, and the wells were washed 5 times with WB. A rabbit anti-phosphorylated MBS antibody solution (Asahi Kasei Pharma, lot No, 122676431) diluted 10,000 times with WB containing 1% bovine serum albumin was added to the wells, and after the reaction for 1 hour, the wells were washed 5 times with WB. Goat anti-rabbit IgG-HRP (Zymed) diluted 1,000 times with WB containing 1% bovine serum albumin was added to the wells as the secondary detection antibody and the mixture was reacted for 1 hour, and then the wells were washed 5 times with WB. An OPD (o-phenylenediamine) solution (1 mg/ml OPD, Sigma), 5.1 g/l of citric acid monohydrate, and 18.4 g/l of Na2HPO4.12H2O were added to the wells to develop color, […] was added 5 minutes later to terminate the color development, and absorbance was measured at 490 nm.
The inhibition ratio was calculated as follows. Inhibition ratio(%)=[…]
Further, the inhibition ratio was calculated with changing the concentration of the test compound, and a compound concentration providing an inhibition ratio of 50% was obtained as IC50.
Background: An ELISA detects its analyte on a solid surface through an enzyme-linked reagent.

The test system of assay [2] is rabbit normal intraocular pressure. The experiment in a line: Intraocular pressure reducing action. It counts as in vivo, Japanese white rabbit. The following applies: Oryctolagus cuniculus, topical; 3 mM aqueous solution, 50 μl to the left eye; max IOP reduction (2, 4, 6 hours) / value immediately before administration; read-out: intraocular pressure reducing degree. The method, then:
A Japanese white rabbit having a body weight of about 2 kg was placed in a positioner and naturalized for one week before the experiment. An opthalmologic local anesthesant (Benoxil) was administered to both eyes, and then intraocular pressure was measured by using a tonometer (Classic 30, Solan). A 3 mM aqueous solution of a test compound was administered in a volume of 50 μl to the left eye, and the right eye was not treated (control eye). The intraocular pressure values were measured for the left and right eyes immediately before, and 2, 4 and 6 hours after the administration of the aqueous solution of the test compound, and the difference of the measured values for the left and right eyes was considered an intraocular pressure reduction value of the test medicament at each measurement time. The largest difference of the values for the left and right eyes among the measured values at the measurement times (after 2, 4 and 6 hours) was considered the maximum intraocular pressure reduction value (max ? IOP) of each test medicament. The intraocular pressure reducing degree representing the intraocular pressure reducing action of each test medicament was calculated according to the following formula. Since rabbits show significant daily variation of intraocular pressure, daily variation is added when change of intraocular pressure is measured over time, and the intraocular pressure reducing action may be overestimated. Therefore, we used this calculation method of intraocular pressure reduction value in order to minimize the influence of the variation. Intraocular pressure reducing degree(%)=(max ? IOP/Intraocular pressure value immediately before administration)×100

T1 sequence (Q13464 1-727): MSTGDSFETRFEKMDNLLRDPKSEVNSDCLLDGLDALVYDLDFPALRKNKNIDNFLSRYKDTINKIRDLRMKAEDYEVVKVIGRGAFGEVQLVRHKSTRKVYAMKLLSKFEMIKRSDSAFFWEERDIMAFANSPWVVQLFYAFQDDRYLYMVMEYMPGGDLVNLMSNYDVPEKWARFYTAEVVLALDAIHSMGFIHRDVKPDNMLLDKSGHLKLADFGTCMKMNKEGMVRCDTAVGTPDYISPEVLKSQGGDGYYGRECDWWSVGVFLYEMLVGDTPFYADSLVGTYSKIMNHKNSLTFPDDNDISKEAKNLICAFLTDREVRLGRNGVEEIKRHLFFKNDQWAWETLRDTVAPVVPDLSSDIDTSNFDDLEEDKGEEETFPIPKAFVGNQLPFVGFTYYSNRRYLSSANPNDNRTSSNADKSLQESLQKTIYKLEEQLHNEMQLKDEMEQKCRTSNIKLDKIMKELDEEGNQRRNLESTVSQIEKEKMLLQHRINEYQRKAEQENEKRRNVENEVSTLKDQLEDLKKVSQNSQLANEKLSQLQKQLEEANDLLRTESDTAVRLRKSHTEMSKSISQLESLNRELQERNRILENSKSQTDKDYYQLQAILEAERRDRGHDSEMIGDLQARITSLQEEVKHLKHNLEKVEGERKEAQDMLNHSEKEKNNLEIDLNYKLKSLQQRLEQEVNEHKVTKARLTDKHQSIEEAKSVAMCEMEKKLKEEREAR

In general, IC50 refers to the concentration needed to halve the response being measured. High values mean lower potency, low ones higher potency. `NOCC(=O)N[C@H]1CCN(S(=O)(=O)c2cccc3cncc(Cl)c23)C1` [Example 101, (S)-3-[2-(Aminooxy)acetyl]amino-1-(4-chloro-5-isoquinolinesulfonyl)pyrrolidine] yielded a concentration for half-maximal inhibition (IC50) in assay [1] below 1000 nM. Besides, the inhibition in vivo at 3000 µM in assay [2] was at least 20%.
For `Nc1cncc2cccc(S(=O)(=O)N3CC[C@H](N)C3)c12` [Example 12-1, (S)-3-Amino-1-(4-amino-5-isoquinolinesulfonyl)pyrrolidine] the same measures were 1000 to 3000 nM and 10 to 20%.
For `Cc1cncc2cccc(S(=O)(=O)N3CC(N)C3)c12` [Example 26, 3-Amino-1-(4-methyl-5-isoquinolinesulfonyl)azetidine] the same measures were below 1000 nM and 5 to 10%.
For the molecule `O=C(CCN1CCCCC1)N[C@H]1CCN(S(=O)(=O)c2cccc3cncc(Cl)c23)C1` [Example 80, (S)-3-[3-(Piperidin-1-yl)propionyl]amino-1-(4-chloro-5-isoquinolinesulfonyl)pyrrolidine], the IC50 in assay [1] fell in the range of 1000 to 3000 nM. Also, in assay [2], the inhibition in vivo at 3000 µM fell in the range of 5 to 10%.
`C#Cc1cncc2cccc(S(=O)(=O)N3CC[C@H](NCc4ccc(OC)cc4)C3)c12` [Example 10-7] gave an IC50 in assay [1] below 1000 nM. Also, the inhibition in vivo at 3000 µM in assay [2] lay within 10 to 20%.
For `N[C@@H]1CCN(S(=O)(=O)c2cccc3cncc(Cl)c23)C1` [Example 19-2, (R)-3-Amino-1-(4-chloro-5-isoquinolinesulfonyl)pyrrolidine] the same measures were below 1000 nM and at least 20%.
For `NCCN[C@H]1CCN(S(=O)(=O)c2cccc3cncc(Cl)c23)C1` [Example 19-32], the concentration for half-maximal inhibition (IC50) in assay [1] is 1000 to 3000 nM. Further, the inhibition in vivo at 3000 µM in assay [2] is at least 20%.
For `O=S(=O)(c1cccc2cncc(Br)c12)N1CC[C@H](NCc2ccoc2)C1` [Example 1-14] the same measures were below 1000 nM and 5 to 10%.
As for `N[C@@H]1CCCN(S(=O)(=O)c2cccc3cncc(Cl)c23)C1` [Example 21-2, (R)-3-Amino-1-(4-chloro-5-isoquinolinesulfonyl)piperidine], the half-maximal inhibitory concentration (IC50) in assay [1] is 1000 to 3000 nM. In assay [2], the inhibition in vivo at 3000 µM is 10 to 20%.
For `Cc1nc(CN[C@H]2CCN(S(=O)(=O)c3cccc4cncc(Br)c34)C2)c[nH]1` [Example 1-19] the same measures were 1000 to 3000 nM and 5 to 10%.
The matching figures for `NCCN[C@H]1CCN(S(=O)(=O)c2cccc3cncc(Br)c23)C1` [Example 1-31]: below 1000 nM and 10 to 20%.
For `Cn1cccc1CN[C@H]1CCN(S(=O)(=O)c2cccc3cncc(Br)c23)C1` [Example 1-20] the same measures were below 1000 nM and 10 to 20%.
`O=S(=O)(c1cccc2c(O)ncc(Br)c12)N1CC[C@H](NCc2ccco2)C1` [Example 38-1, (S)-1-(1-Hydroxy-4-bromo-5-isoquinolinesulfonyl)-3-(2-furylmethylamino)pyrrolidine]: the half-maximal inhibitory concentration (IC50) in assay [1] fell in the range of 1000 to 3000 nM. Besides, in assay [2], the inhibition in vivo at 3000 µM was in the range of 5 to 10%.
For `CN[C@@H]1CCN(S(=O)(=O)c2cccc3cncc(C)c23)C1` [Example 27, (R)-3-(Methylamino)-1-(4-methyl-5-isoquinolinesulfonyl)pyrrolidine] the same measures were below 1000 nM and 5 to 10%.
In the case of `Cc1cncc2cccc(S(=O)(=O)N3CC[C@H](NCCN)C3)c12` [Example 8-32], the concentration for half-maximal inhibition (IC50) in assay [1] is below 1000 nM. The inhibition in vivo at 3000 µM in assay [2] is 5 to 10%.
For `CC(N)C1CCN(S(=O)(=O)c2cccc3cncc(Cl)c23)C1` (stereo not shown) [Example 45, 3-(1-Aminoethyl)-1-(4-chloro-5-isoquinolinesulfonyl)pyrrolidine] the same measures were 1000 to 3000 nM and 5 to 10%.
The matching figures for `Cc1cncc2cccc(S(=O)(=O)N3CC[C@H](NC(C)C)C3)c12` [Example 8-27]: 1000 to 3000 nM and 10 to 20%.
The matching figures for `COc1cncc2cccc(S(=O)(=O)N3CC[C@H](N)C3)c12` [Example 15-1, (S)-3-Amino-1-(4-methoxy-5-isoquinolinesulfonyl)pyrrolidine]: 1000 to 3000 nM and 5 to 10%.
In turn, `N[C@H]1CCN(S(=O)(=O)c2cccc3cncc(Br)c23)C1` [Example 1-1, (S)-3-Amino-1-(4-bromo-5-isoquinolinesulfonyl)pyrrolidine] came in with an IC50 in assay [1] below 1000 nM. The inhibition in vivo at 3000 µM in assay [2] was at least 20%.
In assay [1], `Cc1cnc(O)c2cccc(S(=O)(=O)N3CC[C@H](N)C3)c12` [Example 25-1, (S)-3-Amino-1-(1-hydroxy-4-methyl-5-isoquinolinesulfonyl)pyrrolidine] returned a concentration for half-maximal inhibition (IC50) below 1000 nM. The inhibition in vivo at 3000 µM in assay [2] fell in the range of 10 to 20%.
Take `O=C(N[C@H]1CCN(S(=O)(=O)c2cccc3cncc(Cl)c23)C1)C1CNCCO1` (stereo partly drawn) [Example 102, N—[(S)-1-(4-chloro-5-isoquinolinesulfonyl)pyrrolidin-3-yl]morpholin-2-carboxamide]: the IC50 in assay [1] was below 1000 nM. Also, the inhibition in vivo at 3000 µM in assay [2] was at least 20%.
In assay [1], `Cc1cncc2cccc(S(=O)(=O)N3CC[C@H](NCc4cccn4C)C3)c12` [Example 8-21] yielded an IC50 below 1000 nM. Moreover, the inhibition in vivo at 3000 µM in assay [2] was in the range of 10 to 20%.
As to `Cc1cncc2cccc(S(=O)(=O)N3CC[C@H](NCc4ccc5c(c4)OCO5)C3)c12` [Example 8-8], the IC50 in assay [1] was below 1000 nM.
Same read-out and setting: then `CCCN[C@H]1CCN(S(=O)(=O)c2cccc3cncc(C)c23)C1` [Example 8-5], with below 1000 nM; and `O=S(=O)(c1cccc2cncc(Br)c12)N1CC[C@H](NC2CCC(O)CC2)C1` (stereo partly shown) [Example 1-33], with 1000 to 3000 nM; and `O=S(=O)(c1cccc2cncc(F)c12)N1CC[C@H](NCc2ccc3c(c2)OCO3)C1` [Example 18-8], with below 1000 nM.
The same measure, in the same setting: with `Cc1ccc(CN[C@H]2CCN(S(=O)(=O)c3cccc4cncc(F)c34)C2)o1` [Example 18-16] the figure was 1000 to 3000 nM; with `CS(=O)(=O)N[C@H]1CCN(S(=O)(=O)c2cccc3cncc(Cl)c23)C1` [Example 50-1, (S)-3-(Methanesulfonylamino)-1-(4-chloro-5-isoquinolinesulfonyl)pyrrolidine], 1000 to 3000 nM.
On the same count and under the same terms, with `O=S(=O)(c1cccc2cncc(Br)c12)N1CC[C@H](NCc2ccc3c(c2)OCCO3)C1` [Example 1-38] the figure was below 1000 nM.
Take `O=S(=O)(c1cccc2cncc(Br)c12)N1CC[C@H](NCCc2ccccc2)C1` [Example 1-13]: the half-maximal inhibitory concentration (IC50) in assay [1] is below 1000 nM.
In assay [1], `O=S(=O)(c1cccc2cncc(Br)c12)N1CC[C@H](NCc2ccc(O)cc2)C1` [Example 1-11] gave an IC50 below 1000 nM.
The same measure, in the same setting: with `C#Cc1cncc2cccc(S(=O)(=O)N3CC[C@H](NCc4ccco4)C3)c12` [Example 10-14] the figure was 1000 to 3000 nM; with `CCN[C@H]1CCN(S(=O)(=O)c2cccc3cncc(Cl)c23)C1` [Example 19-4], 1000 to 3000 nM.
